Measured values: patent US20070027093A1, “Anorectic” (Japan Tobacco Inc., priority 2004, published 2007)
Like-named read-outs stand apart in the source and are kept apart here.

Assays:
SD(IGS) rats = test: Evaluation of compounds' effect on food consumption in rats; format: in vivo; settings: Rattus norvegicus, fasted SD(IGS) rats, high fat diet; for inhibition in vivo at 10 mg/kg: 10 mg/kg oral; for inhibition in vivo at 1 mg/kg: 1 mg/kg oral
From the text: Evaluation of Compounds' Effect on Food Consumption in Rats
SD(IGS) rats (Charles River Japan, Inc., 5-10 weeks of age, male) were used for the pharmacological tests. Rats were individually housed in the room set to a light cycle of lights-out at 10 am and lights-on at 10 pm, and were adapted to high fat diet (35% w/w). They were acclimated for more than 10 days prior to experiments under these conditions.
Based on the food consumption during acclimation and the body weight on the day of experiment, rats were grouped with no difference between groups.
As the test compound, Compounds A-P were used. These test compounds were suspended in 0.5% methyl cellulose solution.
Rats were fasted for about 24 hours before experiment. Each dose of the test compound was orally administered just after the lights-out, and immediately thereafter, the feeding of the high fat diet was resumed. The food weight was measured at 1, 4 and 8 hours after the resumption of the feeding to obtain the cumulative food consumption. The inhibitory rate on food consumption was determined by the following formula using the weight of the cumulative food consumption in each group.
The inhibitory rate on food consumption (%)=(1-test compound group/vehicle group)×100

human DGAT1 = target: T1, human DGAT1 (Homo sapiens, UniProt O75907); test: Assay of DGAT1 enzyme inhibitory activity (Scintillation Proximity Assay); format: biochemical; settings: human DGAT1 membrane fraction from Sf21 cells, 200 μM dioleoyl glycerol, 25 μM 14C decanoyl CoA, SPA; read-out: DGAT1 enzyme inhibitory activity (IC50 class)
T1 construct: FLAG (N); made in house; host or cells: Sf21 insect cells (baculovirus, Bac-to-Bac system); cell membrane fraction
T1 sequence (O75907 1-488): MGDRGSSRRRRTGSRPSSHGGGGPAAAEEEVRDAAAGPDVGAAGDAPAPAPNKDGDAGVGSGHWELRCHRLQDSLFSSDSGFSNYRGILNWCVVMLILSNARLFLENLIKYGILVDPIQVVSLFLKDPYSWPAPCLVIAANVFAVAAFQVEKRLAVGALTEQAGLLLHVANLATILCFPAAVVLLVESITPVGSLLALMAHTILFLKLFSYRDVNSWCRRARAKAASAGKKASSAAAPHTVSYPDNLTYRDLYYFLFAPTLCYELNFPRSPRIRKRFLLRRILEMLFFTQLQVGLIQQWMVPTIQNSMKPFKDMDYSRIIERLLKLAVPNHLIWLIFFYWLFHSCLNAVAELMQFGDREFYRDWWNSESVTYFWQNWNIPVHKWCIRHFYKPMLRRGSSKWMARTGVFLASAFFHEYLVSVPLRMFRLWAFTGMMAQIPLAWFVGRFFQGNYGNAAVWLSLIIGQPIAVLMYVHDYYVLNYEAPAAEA
Protocol: The enzyme source used for the assay was prepared using a human DGAT1 cDNA isolated from the human liver cDNA library. To be specific, a restriction enzyme cleaving sequence and a flag-labeling sequence were added onto the 5′ side and a restriction enzyme cleaving sequence was added onto the 3′ side of the human DGAT1 cDNA by PCR, and human flag tag DGAT1 baculovirus was prepared using Bac-to-Bac Baculovirus Expression System (Invitrogen). Sf21 insect cells were infected for 24-72 hours, recovered and ruptured in a homogenizing buffer using a microfluidizer. The homogenate was centrifuged at 45,000 rpm for 1 hour, and the cell membrane fractions were recovered and used as an enzyme source.
The DGAT inhibitory activity was measured by Scintillation Proximity Assay (SPA). Human DGAT1 membrane fraction (0.25 μg/well) was mixed with various concentrations of the compound and 200 μM of dioleoyl glycerol (enzyme substrate). […] Wheat Germ Agglutinin (WGA) SPA beads-suspended 6 mM HgCl2 (25 μL) was added to terminate the reaction, and the reaction mixture was kept at room temperature for 2 hours to allow adhesion of produced TG onto the SPA beads together with the cell membrane. The mixture was centrifuged at 2,500 rpm for 5 min to precipitate the SPA beads. The radioactivity was measured using Top Count.

[1] = cumulative food consumption 1 h after resumption of feeding, read-out: inhibitory rate on food consumption, 1 h
[2] = cumulative food consumption 4 h after resumption of feeding, read-out: inhibitory rate on food consumption, 4 h
[3] = cumulative food consumption 8 h after resumption of feeding, read-out: inhibitory rate on food consumption, 8 h

| IC50 (human DGAT1) [nM] | SMILES | inhibition in vivo at 10 mg/kg (SD(IGS) rats; [1]) [%] | inhibition in vivo at 10 mg/kg (SD(IGS) rats; [2]) [%] | inhibition in vivo at 10 mg/kg (SD(IGS) rats; [3]) [%] | inhibition in vivo at 1 mg/kg (SD(IGS) rats; [1]) [%] | inhibition in vivo at 1 mg/kg (SD(IGS) rats; [2]) [%] | inhibition in vivo at 1 mg/kg (SD(IGS) rats; [3]) [%] |
| --- | --- | --- | --- | --- | --- | --- | --- |
|  | CC1(C)Oc2ncnc(N)c2N=C1c1ccc([C@H]2CC[C@H](CC(=O)O)CC2)cc1 [Compound A] | 29 | 37 | 30 |  |  |  |
| > 100 | CCCc1c(C(=O)OCC)c(C(=O)OCC)c2c(-c3ccccc3)cc(N3CCOCC3)nn12 [Compound B, Diethyl 2-morpholin-4-yl-4-phenyl-7-propylpyrrolo[1,2-b]pyridazine-5,6-dicarboxylate] | 26 | 14 | 4 |  |  |  |
|  | CC1(C)Oc2ncnc(N)c2N=C1c1ccc([C@H]2CC[C@H](CC(=O)O)CC2)cc1 [Compound C] |  |  |  | 24 | 30 | 19 |
|  | Cc1nc(N)c2c(n1)OC(C)(C)C(c1ccc([C@H]3CC[C@H](CC(=O)O)CC3)cc1)=N2 [Compound D] |  |  |  | 50 | 27 | 17 |
|  | Cc1nc(N)c2c(n1)OC(C)(C)C(c1ccc([C@H]3CC[C@H](CNC(=O)CO)CC3)cc1)=N2 [Compound E] |  |  |  | 6 | 15 | 20 |
|  | Cc1nc(N)c2c(n1)OC(C)(C)C(c1ccc([C@H]3CC[C@H](CCc4nc(=O)on4C)CC3)cc1)=N2 [Compound F] |  |  |  | 11 | 20 | 13 |
|  | Cc1nc(N)c2c(n1)OC(C)(C)C(c1ccc([C@H]3CC[C@H](CNC(=O)C(C)(C)CO)CC3)cc1)=N2 [Compound G] |  |  |  | 29 | 19 | 15 |
|  | Cc1nc(N)c2c(n1)OC(C)(C)C(c1ccc([C@H]3CC[C@H](CNC(=O)CO)CC3)c(Cl)c1)=N2 [Compound H] |  |  |  | 36 | 36 | 20 |
|  | Cc1nc(N)c2c(n1)OC(C)(C)C(c1ccc([C@H]3CC[C@H](CNC(=O)C(C)(C)O)CC3)cc1)=N2 [Compound I] |  |  |  | 30 | 1 | 4 |
|  | Cc1nc(N)c2c(n1)OC(C)(C)C(c1ccc([C@H]3CC[C@H](Cc4nc(=O)o[nH]4)CC3)cc1)=N2 [Compound J] |  |  |  | 8 | 23 | 10 |
|  | CC1(C)Oc2nc(C(F)(F)F)nc(N)c2N=C1c1ccc2c(c1)CCC21CCC(CC(=O)O)CC1 (centres unmarked) [Compound K] |  |  |  | 19 | 37 | 22 |
| 10 to 100 | Cc1nc(N)c2c(n1)OC(C)(C)C(c1ccc([C@H]3CC[C@H](CN4CCCC(O)C4=O)CC3)cc1)=N2 (some centres unmarked) [Compound L] |  |  |  | 10 | 16 | 9 |
|  | CC1(C)Oc2nc(C(F)(F)F)nc(N)c2N=C1c1ccc([C@H]2CC[C@H](CC(=O)O)CC2)c(Cl)c1 [Compound M] |  |  |  | 26 | 12 | 14 |
|  | CC1(C)Oc2nc(C(F)(F)F)nc(N)c2N=C1c1ccc([C@H]2CC[C@H](CNC(N)=O)CC2)c(Cl)c1 [Compound N] |  |  |  | 17 | 6 | 7 |
|  | Cc1nc(N)c2c(n1)OC(C)(C)C(c1ccc([C@H]3CC[C@H](CNC(N)=O)CC3)c(Cl)c1)=N2 [Compound O] |  |  |  | 20 | 13 | 12 |
|  | CC1(C)Oc2ncnc(N)c2C=C1c1ccc2c(c1)CC[C@]21CC[C@@H](CC(=O)O)CC1 [Compound P] |  |  |  | 20 | 36 | 28 |
